Tests used:
Caco-2 monolayers = assay: t10-CLA-induced loss of transepithelial electrical resistance in Caco-2 monolayers; assay type: cell-based, human; settings: 50 μM t10-CLA stimulus, positive control set to 100; each material at its tabulated concentration (TQ 5.0, NS8 0.11, NS9 0.99, NS10 0.012, NSSpent#2 0.0005 μg TQ equivalents/mL; Spent#1 5 μg/mL)
Excerpt: Caco-2 Cells-The protocol for growing and differentiation the human Caco-2 colon andenocarcinoma cells was a modification of Protocol 3 as described by Yamashita et al. [[…]., and Furuyama, Y. (2002) New and better protocols for a short-term Caco-2 cell culture system, J Pharm Sci 91, 669-679]. Caco-2 Human Colon Adenocarcinoma cells were obtained from ATCC (Rockville, Md.; catalog #HTB-37) and maintained in a growth media: DMEM (Dulbecco's Modified Eagles Medium 1×) containing L-glutamine, glucose; Cellgro catalog #35-010CV with the following additions: (1) Penicillin (5,000 IU/mL)/Streptomycin (5,000 μg/mL) Cellgro catalog #30-001C1, (2) 10% FBS-Fetal Bovine Serum, Characterized; Hyclone catalog #SH30071.3, and (3) 1% NEAA-Non Essential Amino Acids; Cellgro catalog #25-025-CI; cells were cultured at 37 C in a humidified air-5% CO2 atmosphere in T175 flasks. Differentiation of Caco-2 cells to intestinal epithelial cells-BIOCOAT^R HTS Caco-2 Assay System kits (Becton Dickinson, N.J.; catalog #354801) consisting of 24-well fibrillar collagen coated inserts and feeder trays were used in all experiments and plated as follows. Media was removed from the T175 flasks and cells were washed with 10 mLs PBS (phosphate buffered saline 1× without Ca^++, without Mg^++; Cellgro #25-053-CI). PBS was removed and 5 mL of Trypsin/EDTA (1×, 0.25% Trypsin/2.21 mM EDTA in HBSS; Cellgro #25-053-CI) were added to the flask and the flask placed at 37 C until cells were visibly floating, approximately 3-5 minutes. Five mL of growth media were added to the flask to neutralize the trypsin. This solution was then transferred to a sterile 50 mL tube. Eight μL were sampled and placed in a hemocytometer for counting under a microscope. Five-hundred μL of cell solution were placed in the upper chamber of each insert so that the final density per well was at least 6.6×10^5 cells/cm^2. Thirty-five mL of growth media were then added to the feeder tray and plate incubated at 37 C with 5% CO2 and 100% humidity for 20-24 hours. […]

[1] = test system: adiponectin secretion in 3T3-L1 adipocytes; assay: Adiponectin secretion in t10-CLA-stimulated 3T3-L1 adipocytes; assay type: cell-based, murine
Procedure: Treatment—Test materials were added four hours prior to the addition of t10-CLA at a concentration of 50 μM. Following overnight incubation, the supernatant media were sampled for determination of IL-6 and adiponectin. Adiponectin assay—The adiponectin secreted into the medium was quantified using the Mouse Adiponectin Quantikine® Immunoassay kit with no modifications (R&D Systems, Minneapolis, Minn.). […] Statistical Calculations and Interpretation—Test materials and were assayed in duplicate, while solvent controls were replicated eight times. IL-6 and adiponectin secretion were represented relative to the IL-6 and adiponectin secretion of the t10-CLA only controls as the IL-6 and adiponectin index and differences among the means were analyzed by the student's t-test assuming a five percent probability of a type I error (Excel; Microsoft, Redmond, Wash.).

[2] = test system: IL-6 secretion in 3T3-L1 adipocytes; assay: IL-6 secretion in t10-CLA-stimulated 3T3-L1 adipocytes; assay type: cell-based, murine
Procedure: Treatment—Test materials were added four hours prior to the addition of t10-CLA at a concentration of 50 μM. Following overnight incubation, the supernatant media were sampled for determination of IL-6 and adiponectin. Interleukin-6 assay—The IL-6 secreted into the medium in response to […] stimulation was quantified using the Quantikine® Mouse IL-6 Immunoassay kit with no modifications (R&D Systems, Minneapolis, Minn.). […] All supernatant media samples were diluted 1:30 for quantification. Statistical Calculations and Interpretation—Test materials and were assayed in duplicate, while solvent controls were replicated eight times. IL-6 and adiponectin secretion were represented relative to the IL-6 and adiponectin secretion of the t10-CLA only controls as the IL-6 and adiponectin index and differences among the means were analyzed by the student's t-test assuming a five percent probability of a type I error (Excel; Microsoft, Redmond, Wash.).

AMPK = AMPK activation (pT172-AMPK) in C2C12 myocytes; assay type: cell-based, mouse; settings: 1 mM
Procedure: Cell culture—Mouse C2C12 myoblasts were obtained from American Type Culture Collection (Manassas, Va.), and were maintained in Dulbecco's modified Eagle's medium (DMEM) supplemented with 10% fetal bovine serum at 37° C. under a humidified atmosphere of 5% CO2.
C2C12 cells were seeded at an initial density of 6×10^4 cells/cm^2 in 24-well plates. For two days, the cells were allowed grow to reach confluence. Following confluence, the cells were forced to differentiate into myocytes by culturing in DMEM supplemented with 2% horse serum for seven days.
Treatment—On Day 8 to 10 post differentiation, C2C12 myocytes were incubated in serum-free DMEM plus 0.5% BSA (bovine serum albumin) for three hours. […]
Measuring activated AMPKa—pT^172-AMPK was quantified using the Biosource AMPK Immunoassay Kit (Camarillo, Calif.) without modification. Protein content of the cell lysates was determined with the Active Motif fluorescent protein assay reagent (Carlsbad Calif., Hoefelschweiger, B. K., Duerkop, A., and Wolfbeis, O. S. Novel type of general protein assay using a chromogenic and fluorogenic amine-reactive probe. Anal Biochem 2005, 344, 122-9). A Packard Fluorocount spectrofluorometer (Model #BF 10000, Meridan, Conn.) was used for protein determination and a MEL312e BIO-KINETICS READER (Bio-Tek Instruments, Winooski, Vt.) was used for quantification of pT^172-AMPK. […]

[3] = relative to t10-CLA only control (100), 50 μM t10-CLA, overnight, each material at its tabulated concentration

In the case of `CCCCC/C=C\C=C\CCCCCCCCC(=O)O` [t10-CLA, trans-10, cis12-Conjugated Linoleic Acid], the “Relative Loss of TEER” value (Caco-2 monolayers) is reported as 100 ± 5.81, the “reduction in adiponectin secretion relative to controls” value ([1]; 50 μM) is reported as 65% and the “Adiponectin Index” value [1, 3] is reported as 100 ± 14. For the same molecule, the “increase in IL-6 secretion relative to controls” value ([2]; 50 μM) was 8 fold and the “IL-6 Index” value [2, 3] was 100 ± 11.
For `NC(=O)c1ncn([C@@H]2O[C@H](CO)[C@@H](O)[C@H]2O)c1N` [AICAR, 5-Aminoimidazole-4-carboxamide ribonucleoside], the “increase in pT172-AMPK relative to DMSO negative controls” value (AMPK; average over ten independent assays, 95% CI=1.26-2.21) was 1.67 fold and the AMPK activation (AMPK; in assays run with N. sativa supercritical CO2 extracts) was 1.45 fold.

Reference: patent US8535740B2, “Compositions from Nigella sativa” (priority 2002, dated 2013)
